# Laboratory results from patent US6737383B1, “Herbicidal oxadiazolidines” (priority 1999, dated 2004).
# Legend:
# surinam grass = assay: Test B pre/postemergence surinam grass; type: in vivo, Brachiaria decumbens
# How it was run: (§1)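 Response is a visual 0-to-10 score relative to untreated plants, where 0 means no effect and 10 means complete control, taken twelve to sixteen days after application. Treatments went onto soil at planting and onto foliage of 1- to 4-leaf plants, using a surfactant-containing non-phytotoxic solvent.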
# corn = assay: Test B pre/postemergence corn; type: in vivo, Zea mays
# How it was run: as §1
# crabgrass = assay: Test B pre/postemergence crabgrass; type: in vivo, Digitaria sanguinalis
# How it was run: as §1
# [1] = Postemergence, Rate 500 g/ha, scale of 0 to 10 where 0 is no effect and 10 is complete control
# [2] = Preemergence, Rate 62 g/ha, scale of 0 to 10 where 0 is no effect and 10 is complete control
# [3] = Preemergence, Rate 125 g/ha, scale of 0 to 10 where 0 is no effect and 10 is complete control
# [4] = Preemergence, Rate 250 g/ha, scale 0 to 10, 0 is no effect, 10 is complete control
# [5] = Preemergence, Rate 500 g/ha, scale 0 to 10, 0 is no effect, 10 is complete control
# [6] = Rate 62 g/ha, Postemergence, scale 0 to 10 (0 no effect, 10 complete control)
# [7] = Rate 125 g/ha, Postemergence, scale 0 to 10, 0 is no effect, 10 is complete control
# [8] = Postemergence, Rate 250 g/ha, scale 0 to 10
# [9] = Postemergence, Rate 62 g/ha, scale 0 to 10, 0 is no effect, 10 is complete control
# [10] = Postemergence, Rate 125 g/ha, scale of 0 to 10 where 0 is no effect and 10 is complete control
# [11] = Postemergence, Rate 250 g/ha, scale of 0 to 10, 0 is no effect, 10 is complete control
# [12] = Preemergence, Rate 250 g/ha, scale 0 to 10 (0 no effect, 10 complete control)
# [13] = Preemergence, Rate 500 g/ha, scale of 0 to 10 where 0 is no effect and 10 is complete control
# [14] = Postemergence, Rate 1000 g/ha, scale 0 to 10 (0 no effect, 10 complete control)
# [15] = Rate 500 g/ha, Postemergence, scale 0 to 10, 0 is no effect, 10 is complete control
# [16] = Rate 1000 g/ha, Preemergence, scale 0 to 10 (0 no effect, 10 complete control)
compound,measurement,setting,value
COC(OC)C(C)n1c(=O)on(C(=O)N(c2ccc(F)cc2)C(C)C)c1=O (centres unmarked) [Compound 471],B. signalgrass plant response rating,"surinam grass; Postemergence, Rate 250 g/ha, scale 0 to 10, 0 no effect, 10 complete control",4
same,B. signalgrass plant response rating,surinam grass; [1],6
same,"Plant response rating, B. signalgrass",surinam grass; [2],6
same,"Plant response rating, B. signalgrass",surinam grass; [3],9
same,B. signalgrass plant response rating,surinam grass; [4],10
same,B. signalgrass plant response rating,surinam grass; [5],10
same,B. signalgrass plant response rating,surinam grass; [6],0
same,B. signalgrass plant response rating,surinam grass; [7],0
same,Corn plant response rating,corn; [8],0
same,Corn plant response rating,corn; [1],0
same,"Plant response rating, Corn",corn; [2],0
same,"Plant response rating, Corn",corn; [3],0
same,Corn plant response rating,corn; [4],2
same,Corn plant response rating,corn; [5],3
same,Corn plant response rating,corn; [6],0
same,Corn plant response rating,corn; [7],0
same,Crabgrass plant response rating,crabgrass; [8],8
same,Crabgrass plant response rating,crabgrass; [1],9
same,"Plant response rating, Crabgrass",crabgrass; [2],9
same,"Plant response rating, Crabgrass",crabgrass; [3],10
same,Crabgrass plant response rating,crabgrass; [4],10
same,Crabgrass plant response rating,crabgrass; [5],10
same,Crabgrass plant response rating,crabgrass; [6],1
same,Crabgrass plant response rating,crabgrass; [7],3
CC(C)N(C(=O)n1oc(=O)n(CCC(=O)N(C)C)c1=O)c1ccc(F)cc1 [Compound 638],"Plant response rating, B. signalgrass",surinam grass; [9],0
same,"Plant response rating, B. signalgrass",surinam grass; [10],4
same,B. signalgrass plant response rating,surinam grass; [11],6
same,"Plant response rating, B. signalgrass",surinam grass; [1],6
same,B. signalgrass plant response rating,surinam grass; [2],4
same,B. signalgrass plant response rating,surinam grass; [3],7
same,"Plant response rating, B. signalgrass",surinam grass; [12],8
same,"Plant response rating, B. signalgrass",surinam grass; [13],8
same,"Plant response rating, Corn",corn; [9],0
same,"Plant response rating, Corn",corn; [10],2
same,Corn plant response rating,corn; [11],2
same,"Plant response rating, Corn",corn; [1],3
same,Corn plant response rating,corn; [2],0
same,Corn plant response rating,corn; [3],8
same,"Plant response rating, Corn",corn; [13],8
same,"Plant response rating, Crabgrass",crabgrass; [9],2
same,"Plant response rating, Crabgrass",crabgrass; [10],5
same,Crabgrass plant response rating,crabgrass; [11],8
same,"Plant response rating, Crabgrass",crabgrass; [1],9
same,Crabgrass plant response rating,crabgrass; [2],9
same,Crabgrass plant response rating,crabgrass; [3],9
same,"Plant response rating, Crabgrass",crabgrass; [12],9
same,"Plant response rating, Crabgrass",crabgrass; [13],10
CC(C)N(C(=O)n1oc(=O)n(CC(=O)C2CCC2)c1=O)c1ccc(F)cc1F [Compound 642],"Plant response rating, B. signalgrass",surinam grass; [9],0
same,"Plant response rating, B. signalgrass",surinam grass; [10],0
same,B. signalgrass plant response rating,surinam grass; [11],0
same,"Plant response rating, B. signalgrass",surinam grass; [1],0
same,B. signalgrass plant response rating,surinam grass; [2],0
same,B. signalgrass plant response rating,surinam grass; [3],2
same,"Plant response rating, B. signalgrass",surinam grass; [12],5
same,"Plant response rating, B. signalgrass",surinam grass; [13],8
same,"Plant response rating, Corn",corn; [9],0
same,Corn plant response rating,corn; [10],0
same,Corn plant response rating,corn; [11],0
same,"Plant response rating, Corn",corn; [1],0
same,Corn plant response rating,corn; [2],0
same,Corn plant response rating,corn; [3],0
same,"Plant response rating, Corn",corn; [12],0
same,"Plant response rating, Corn",corn; [13],0
same,"Plant response rating, Crabgrass",crabgrass; [9],0
same,Crabgrass plant response rating,crabgrass; [10],0
same,Crabgrass plant response rating,crabgrass; [11],0
same,"Plant response rating, Crabgrass",crabgrass; [1],5
same,Crabgrass plant response rating,crabgrass; [2],6
same,Crabgrass plant response rating,crabgrass; [3],8
same,"Plant response rating, Crabgrass",crabgrass; [12],10
same,"Plant response rating, Crabgrass",crabgrass; [13],10
COP(=O)(CCn1c(=O)on(C(=O)N(c2ccc(F)cc2)C(C)C)c1=O)OC [Compound 662],"Plant response rating, B. signalgrass",surinam grass; [10],0
same,B. signalgrass plant response rating,surinam grass; [11],0
same,B. signalgrass plant response rating,surinam grass; [14],2
same,B. signalgrass plant response rating,surinam grass; [3],0
same,"Plant response rating, B. signalgrass",surinam grass; [12],3
same,"Plant response rating, B. signalgrass",surinam grass; [13],7
same,B. signalgrass plant response rating,surinam grass; [15],2
same,"Plant response rating, B. signalgrass",surinam grass; [16],9
same,Corn plant response rating,corn; [10],0
same,Corn plant response rating,corn; [11],0
same,Corn plant response rating,corn; [14],1
same,Corn plant response rating,corn; [3],0
same,"Plant response rating, Corn",corn; [12],0
same,"Plant response rating, Corn",corn; [13],3
same,Corn plant response rating,corn; [15],0
same,"Plant response rating, Corn",corn; [16],5
same,Crabgrass plant response rating,crabgrass; [10],0
same,Crabgrass plant response rating,crabgrass; [11],0
same,Crabgrass plant response rating,crabgrass; [14],8
same,Crabgrass plant response rating,crabgrass; [3],0
same,"Plant response rating, Crabgrass",crabgrass; [12],4
same,"Plant response rating, Crabgrass",crabgrass; [13],6
same,Crabgrass plant response rating,crabgrass; [15],2
same,"Plant response rating, Crabgrass",crabgrass; [16],9
